Experimental data: patent US20160158200A1, “Combinations of Hepatitis C Virus Inhibitors” (priority 2013, published 2016)

Tested on: HCV genotype-1a variant with glutamine 30 changed to glutamate in the NS5A protein
Assay type: cell-based
Conditions: test compound titrated with BMS-790052 fixed at 200 nM; genotype 1a Q30E replicon
Outline: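 Synergy was assessed by combining several fixed amounts of an NS5A-targeting compound with a titration of the second compound of interest.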

| SMILES | Fold-Synergistic 1a (Q30E) |
| --- | --- |
| CC(C)(NCC(F)(F)F)C(=O)NC(c1nc(-c2ccc(-c3ccc(-c4c[nH]c(C(NC(=O)C(C)(C)NCC(F)(F)F)C(C)(C)C)n4)cc3)cc2)c[nH]1)C(C)(C)C [Compound L-50] | >100 fold |
| CC1CCCCN1C(=O)C(=O)NC(c1nc(-c2ccc(-c3ccc(-c4c[nH]c(C(NC(=O)C(=O)N5CCCCC5C)C(C)(C)C)n4)cc3)cc2)c[nH]1)C(C)(C)C (stereo not shown) [Compound W-38] | >100 fold |
| COC(C)(CO)C(=O)N[C@H](c1nc(-c2ccc(-c3ccc(-c4c[nH]c([C@@H](NC(=O)C(C)(CO)OC)C(C)(C)C)n4)cc3)cc2)c[nH]1)C(C)(C)C (single isomer, unassigned) [Compound W-234] | >10 fold |
| CC(C)OC(=O)N1C2CCC1(C(=O)N[C@H](c1nc(-c3ccc(-c4ccc(-c5c[nH]c([C@@H](NC(=O)C67CCC(CC6)N7C(=O)OC(C)C)C(C)(C)C)n5)cc4)cc3)c[nH]1)C(C)(C)C)CC2.O=C(O)C(F)(F)F.O=C(O)C(F)(F)F [Compound W-118] | >100 fold |
| COC(=O)N(C)CC1(C(=O)N[C@H](c2nc(-c3ccc(-c4ccc(-c5c[nH]c([C@@H](NC(=O)C6(CN(C)C(=O)OC)CC6)C(C)(C)C)n5)cc4)cc3)c[nH]2)C(C)(C)C)CC1 [Compound L-41] | >100 fold |
| CC(C)[C@H](NC(=O)c1cccc2ccccc12)c1ncc(-c2ccc(-c3ccc(-c4cnc([C@@H](NC(=O)c5cccc6ccccc56)C(C)C)[nH]4)cc3)cc2)[nH]1 [Compound S-86] | >100 fold |
| CC(C)(C(=O)N[C@H](c1nc(-c2ccc(-c3ccc(-c4cnc([C@@H](NC(=O)C(C)(C)C5CCCO5)C(C)(C)C)[nH]4)cc3)cc2)c[nH]1)C(C)(C)C)C1CCCO1 (single isomer, unassigned) [Compound B170] | >100 fold |
| CCOC(=O)N1CCC[C@H]1c1ncc(-c2ccc(-c3ccc(-c4cnc([C@@H]5CCCN5C(=O)OCC)[nH]4)cc3)cc2)[nH]1 [Compound S-217] | >10 fold |
| CC(C)(C(=O)N[C@H](c1nc(-c2ccc(-c3ccc(-c4c[nH]c([C@@H](NC(=O)C(C)(C)C(O)C5CC(F)(F)C5)C(C)(C)C)n4)cc3)cc2)c[nH]1)C(C)(C)C)C(O)C1CC(F)(F)C1 (single isomer, unassigned) [Compound N-144A] | >100 fold |
| CC(C)(C)[C@H](NC(=O)C(C)(C)C1(O)CCC(F)(F)CC1)c1ncc(-c2ccc(-c3ccc4nc([C@@H](NC(=O)C(C)(C)C5(O)CCC(F)(F)CC5)C(C)(C)C)[nH]c4c3)cc2)[nH]1 [Compound B58A] | >100 fold |
| CC(C)[C@H](NC(=O)CCCc1ccccc1)c1ncc(-c2ccc(-c3ccc(-c4cnc([C@@H](NC(=O)CCCc5ccccc5)C(C)C)[nH]4)cc3)cc2)[nH]1 [Compound S-57] | >100 fold |
| Cn1cccc1C(O)C(C)(C)C(=O)N[C@H](c1nc(-c2ccc(-c3ccc(-c4c[nH]c([C@@H](NC(=O)C(C)(C)C(O)c5cccn5C)C(C)(C)C)n4)cc3)cc2)c[nH]1)C(C)(C)C (mixture of isomers) [Compound N-129] | >100 fold |
| CN(C(=O)C(C)(C)C)[C@H](c1ncc(-c2ccc(-c3ccc(-c4cnc([C@@H](N(C)C(=O)C(C)(C)C)C(C)(C)C)[nH]4)cc3)cc2)[nH]1)C(C)(C)C [Compound B-207] | <10 fold |
| CC1(C)C2CCC(C(=O)N[C@H](c3nc(-c4ccc(-c5ccc(-c6c[nH]c([C@@H](NC(=O)C78CCC(C7)C(C)(C)C8O)C7(C)CC7)n6)cc5)cc4)c[nH]3)C3(C)CC3)(C2)C1O (single isomer, unassigned) [Compound Y-117] | >100 fold |
| Cc1ccoc1C(=O)N[C@H](c1ncc(-c2ccc(-c3ccc(-c4cnc([C@@H](NC(=O)c5occc5C)C(C)C)[nH]4)cc3)cc2)[nH]1)C(C)C [Compound S-90] | >100 fold |
| CC(C)(C)[C@H](NC(=O)C1CC2CCC(C1)C2(F)F)c1nc(-c2ccc(-c3ccc(-c4c[nH]c([C@@H](NC(=O)C5CC6CCC(C5)C6(F)F)C(C)(C)C)n4)cc3)cc2)c[nH]1 (stereo partly shown) [Compound P-45] | >100 fold |
| CC(C)[C@H](NC(=O)CC1CCCC1)c1ncc(-c2ccc(-c3ccc(-c4cnc([C@@H](NC(=O)CC5CCCC5)C(C)C)[nH]4)cc3)cc2)[nH]1 [Compound S-3] | >100 fold |
| CC(C)(C)C(NC(=O)C1CCCO1)c1nc(-c2ccc(-c3ccc(-c4c[nH]c(C(NC(=O)C5CCCO5)C(C)(C)C)n4)cc3)cc2)c[nH]1 [Compound L-65] | >100 fold |
| CC(C)(C)C(=O)N[C@H](c1nc(-c2ccc(-c3ccc(-c4c[nH]c([C@@H](NC(=O)C(C)(C)C)C(C)(C)C)n4)cc3)cc2)c[nH]1)C(C)(C)C [Compound N-46] | >100 fold |

| SMILES | Fold-Synergistic 1a (Q30E) |
| --- | --- |
| CC(C)(C)[C@H](NC(=O)C1CCC(F)(F)CC1)c1ncc(C#Cc2ccc(C#Cc3cnc([C@@H](NC(=O)C4CCC(F)(F)CC4)C(C)(C)C)[nH]3)cc2)[nH]1 [Compound B60] | >100 fold |
| Cc1ccccc1CC(=O)N[C@H](c1ncc(-c2ccc(-c3ccc(-c4cnc([C@@H](NC(=O)Cc5ccccc5C)C(C)C)[nH]4)cc3)cc2)[nH]1)C(C)C [Compound S-39] | >100 fold |
| CC(C)(C)C(NC(=O)CC1CCOC2(CC2)C1)c1nc(-c2ccc(-c3ccc(-c4c[nH]c(C(NC(=O)CC5CCOC6(CC6)C5)C(C)(C)C)n4)cc3)cc2)c[nH]1 (mixture of isomers) [Compound L-75] | >100 fold |
| CC(C)[C@H](NC(=O)Cc1ccccc1)c1ncc(-c2ccc(-c3ccc(-c4cnc([C@@H](NC(=O)Cc5ccccc5)C(C)C)[nH]4)cc3)cc2)[nH]1 [Compound S-36] | >10 fold |
| CC(C)[C@H](NC(=O)c1ccc(C#N)s1)c1ncc(-c2ccc(-c3ccc(-c4cnc([C@@H](NC(=O)c5ccc(C#N)s5)C(C)C)[nH]4)cc3)cc2)[nH]1 [Compound P-101] | >100 fold |
| CC1([C@H](NC(=O)C(C)(C)C(C)(C)O)c2ncc(-c3ccc(-c4ccc(-c5cnc([C@@H](NC(=O)C(C)(C)C(C)(C)O)C6(C)CC6)[nH]5)cc4)cc3)[nH]2)CC1 [Compound B148] | >100 fold |
| CC1CN(C(C)(C)C(=O)N2CCC(C)(C)C2c2nc(-c3ccc(-c4ccc(-c5c[nH]c(C6N(C(=O)C(C)(C)N7CC(C)OC(C)C7)CCC6(C)C)n5)cc4)cc3)c[nH]2)CC(C)O1 (stereo not shown) [Compound W-228] | <10 fold |
| CC(C)(C)C(NC(=O)C(C)(O)C(F)(F)F)c1nc(-c2ccc(-c3ccc(-c4c[nH]c(C(NC(=O)C(C)(O)C(F)(F)F)C(C)(C)C)n4)cc3)cc2)c[nH]1.O=C(O)C(F)(F)F.O=C(O)C(F)(F)F (single isomer, unassigned) [Compound L-66a] | >100 fold |
| CC(C)(C)C(NC(=O)C1CC(=O)c2ccccc2C1)c1nc(-c2ccc(-c3ccc(-c4c[nH]c(C(NC(=O)C5CC(=O)c6ccccc6C5)C(C)(C)C)n4)cc3)cc2)c[nH]1 (mixture of isomers) [Compound S-256] | >100 fold |
| CC(C)[C@H](NC(=O)CC1CCOCC1)c1ncc(-c2ccc(-c3ccc(-c4cnc([C@@H](NC(=O)CC5CCOCC5)C(C)C)[nH]4)cc3)cc2)[nH]1 [Compound P-58] | >10 fold |
| CCNC(=O)C(=O)N[C@H](c1nc(-c2ccc(-c3ccc(-c4c[nH]c([C@@H](NC(=O)C(=O)OC(C)(C)C)C(C)(C)C)n4)cc3)cc2)c[nH]1)C(C)(C)C [Compound W-43B] | >100 fold |
| COc1ccccc1C(O)CC(=O)N[C@H](c1nc(-c2ccc(-c3ccc(-c4c[nH]c([C@@H](NC(=O)C5(C(O)c6ccccc6OC)CC5)C(C)(C)C)n4)cc3)cc2)c[nH]1)C(C)(C)C (single isomer, unassigned) [Compound N-135A] | >100 fold |
| CC(C)(C)[C@H](NC(=O)C1(c2ccc(Cl)cc2)CC1)c1nc(-c2ccc(-c3ccc(-c4c[nH]c([C@@H](NC(=O)C5(c6ccc(Cl)cc6)CC5)C(C)(C)C)n4)cc3)cc2)c[nH]1 [Compound N-56] | >100 fold |
| CC(C)(C)[C@H](NC(=O)CC1CCC(F)(F)CC1)c1nc(-c2ccc(-c3ccc(-c4c[nH]c([C@@H](NC(=O)CC5CCC(F)(F)CC5)C(C)(C)C)n4)cc3)cc2)c[nH]1 [Compound N-112] | >100 fold |
| COC(=O)N[C@H](CC(C)C)C(=O)N[C@H](c1ncc(-c2ccc(-c3ccc(-c4cnc([C@@H](NC(=O)[C@@H](CC(C)C)NC(=O)OC)C(C)C)[nH]4)cc3)cc2)[nH]1)C(C)C [Compound P-105] | >100 fold |
| CC(C)(C(=O)N[C@H](c1nc(-c2ccc(-c3ccc(-c4c[nH]c([C@@H](NC(=O)C(C)(C)C(O)c5ccccn5)C(C)(C)C)n4)cc3)cc2)c[nH]1)C(C)(C)C)C(O)c1ccccn1 (single isomer, unassigned) [Compound N-128A] | >100 fold |
| CC(=O)N(C)C1(C(=O)N[C@H](c2nc(-c3ccc(-c4ccc(-c5c[nH]c([C@@H](NC(=O)C6(N(C)C(C)=O)CCC6)C(C)(C)C)n5)cc4)cc3)c[nH]2)C(C)(C)C)CCC1.O=C(O)C(F)(F)F.O=C(O)C(F)(F)F [Compound L-12] | >100 fold |
| CC(C)(C)OC(=O)N1CCCCC1(C)C(=O)N[C@H](c1nc(-c2ccc(-c3ccc(-c4c[nH]c([C@@H](NC(=O)C5(C)CCCCN5C(=O)OC(C)(C)C)C(C)(C)C)n4)cc3)cc2)c[nH]1)C(C)(C)C (single isomer, unassigned) [Compound L-46a] | >100 fold |
